From patent publication EP2142646B1, “METHOD OF INCREASING OF THE PHOTOSYNTHETIC CARBON DIOXIDE ASSIMILATION YIELD” (priority 2007, dated 2008)
Several values for one entry are separate records, joined by “and”; a condition that tells them apart may be missing. Equal entries are not always repeated.

Columns and labels:
[1] = target: small subunits of RuBisCO (Spinacia oleracea, UniProt P00870); assay: Bioaffinity chromatography of steroid-binding proteins
From the text: As an example, ecdysteroids can be stated. […] Their function in plants has been unknown yet. We discovered that these compounds influence the carboxylase activity of the enzyme. The active enzyme consists of 8 large subunits and 8 small subunits considered to have regulatory role. We identified the small subunits as proteins able to bind 20-hydroxyecdysone (20HE) in bioaffinity chromatography.

[2] = test system: photosynthesis; assay: Overall activity of photosynthesis in vivo: oxygen production by leaf target (Clark oxygen electrode); conditions: for Net photosynthetic rate. PN, Average: average of 6 plants; for Net photosynthetic rate. PN: individual plants (Plant nr. 1-6), listed as 20E
Method: Activity of photosynthesis was measured as the production of oxygen by circular target (average 35 mm) cut from the third leaf (counted from the top of the plant) that was placed in the sampling chamber. Assay: oxygen electrode (Clark electrode), sampling chamber LD2 (Hansatech, King's Lynn, Great Britain). Target was incubated in the dark for 5 minutes followed by 9 minutes of illumination; production of oxygen evaluated in the fifth-eighth minute after illumination (in the linear part of the light curve). Illumination was 240 micromol.m^-2.s^-1. Plants were 96 days old when analyzed (96 days after sowing). […]

[3] = target: T1, RuBisCO (Spinacia oleracea, UniProt P00870+P00875); assay: RuBisCO carboxylase assay (formation of acid-stable 14C product from NaH14CO3); format: biochemical, spinach
T1 construct: from tissue; host or cells: spinach
From the text: Relative amount of product detected represents the ratio of the amount of [1-14C]-3-phosphoglycerate produced by the reaction in the presence of 20E to the amount of [1-14C]-3-phosphoglycerate produced by the reaction in no presence of 20E.
The influence of ecdysteroids on RuBisCO assay was based on the protocol described by Pierce et al. (Pierce JW, McCurry SD, Mulligan RM, Tolbert NE. Activation and assay of ribulose-1,5-bisphosphate carboxylase/oxygenase. Methods Enzymol. 1982; 89: 47-55.), where the RuBisCO carboxylase activity is assayed by the rate of formation of acid-stable ^14C product, […], formed from NaH^14CO3. First, the enzyme from spinach was activated at 2 mg.mL^-1 in the activating buffer - 100 mM Bicine pH 8.2, non-labelled 10 mM NaHCO3, 20 mM MgCl2, 0.2 mM EDTA and 1 mM dithiodireitol - for ten minutes at 30 °C. The assay itself was carried out in 20 ml scintillation vials in a solution prepared by mixing 250 µL of 200 mM bicine buffer pH 8.2, 0.4 mM EDTA and 1 mM dithiothreitol, 5 µL of 2 M MgCl2, 150 µL of 20E solution or water (in the case of the control), 20 µL of 250 mM NaH^14CO3 solution and 20 µL of 12.5 mM ribulose-1,5-bisphosphate. 250 mM NaH^14CO3 was prepared by mixing NaH^14CO3 solution (specific activity 2 mCi/ml) with 0.3 M NaHCO3 in the ratio of 1:4. The reaction was initiated by the addition of 100 µL of the activated enzyme and the vial was swirled so that the solution components could mix. The reaction was stopped by the addition of 200 µL of 2 M HCl. To remove excess ^14CO2 and acid, the vials were slowly heated at 95 °C in a hood. After the liquid evaporated and the vials were cooled at laboratory temperature, 5 mL of scintillation solution Rotiszint® eco plus was added. The concentration of 20E was chosen so that its final molar concentration to the molar concentration of the enzyme in the vial was 1:1; the stock solution containing 1 mg of 20E per ml was diluted to the desired concentration just before the experiment.
The same experiment as in Example 1 was carried out but different amounts of 20-hydroxyecdysone were used.
The same experiment as in Example 1 was carried out but different brassinosteroids were used.
The same experiment as in Example 1 was carried out but different ecdysteroids were used.
The same experiment as in Example 1 was carried out but mixed ecdysteroid fractions were used.

[4] = molar ratio of steroid to enzyme 10:1, relative to reaction without steroid

T1 sequence (P00870 whole entry, other chains not shown): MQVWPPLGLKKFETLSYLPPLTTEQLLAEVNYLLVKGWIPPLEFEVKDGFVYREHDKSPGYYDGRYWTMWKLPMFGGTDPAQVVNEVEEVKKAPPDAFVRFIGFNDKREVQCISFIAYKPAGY
Sequence of small subunits of RuBisCO (P00870 whole entry): as the sequence (P00870 whole entry, other chains not shown) above

Compound: CC(C)(O)CC[C@@H](O)[C@](C)(O)[C@H]1CC[C@@]2(O)C3=CC(=O)[C@@H]4C[C@@H](O)[C@@H](O)C[C@]4(C)[C@H]3CC[C@]12C [20-hydroxyecdysone]
- binding to small subunits of RuBisCO [1]: able to bind
- Net photosynthetic rate. PN, Average ([2]; 1 hour): 21.09 µmol O2.m^-2.s^-1
- Net photosynthetic rate. PN ([2]; 1 hour, plants 96 days old, illumination 240 micromol.m^-2.s^-1): 17.02 µmol O2.m^-2.s^-1 and 21.56 µmol O2.m^-2.s^-1 and 22.70 µmol O2.m^-2.s^-1 and 18.40 µmol O2.m^-2.s^-1 and 23.42 µmol O2.m^-2.s^-1 (2×)
- Net photosynthetic rate. PN, Average ([2]; 2 hours): 22.77 µmol O2.m^-2.s^-1
- Net photosynthetic rate. PN ([2]; 2 hours): 18.73 µmol O2.m^-2.s^-1 and 21.56 µmol O2.m^-2.s^-1 and 23.83 µmol O2.m^-2.s^-1 and 23.42 µmol O2.m^-2.s^-1 and 25.10 µmol O2.m^-2.s^-1 and 23.98 µmol O2.m^-2.s^-1
- Net photosynthetic rate. PN, Average ([2]; 4 hours): 22.34 µmol O2.m^-2.s^-1
- Net photosynthetic rate. PN ([2]; 4 hours): 21.56 µmol O2.m^-2.s^-1 and 22.70 µmol O2.m^-2.s^-1 and 22.31 µmol O2.m^-2.s^-1 (2×) and 21.75 µmol O2.m^-2.s^-1 and 23.42 µmol O2.m^-2.s^-1
- Net photosynthetic rate. PN, Average ([2]; 6 hours): 22.72 µmol O2.m^-2.s^-1
- Net photosynthetic rate. PN ([2]; 6 hours): 23.83 µmol O2.m^-2.s^-1 and 22.70 µmol O2.m^-2.s^-1 and 22.31 µmol O2.m^-2.s^-1 (2×) and 21.75 µmol O2.m^-2.s^-1 and 23.42 µmol O2.m^-2.s^-1
- Relative amount of product detected ([3]; molar ratio of steroid to enzyme 1:1, [1-14C]-3-phosphoglycerate relative to reaction without steroid): 1.05
- Relative amount of product detected [3, 4]: 1.13
- Relative amount of product detected ([3]; molar ratio of steroid to enzyme 20:1, relative to reaction without steroid): 1.12

Compound: CC(C)[C@@H](C)[C@@H](O)[C@H](O)[C@@H](C)[C@H]1CC[C@H]2[C@@H]3CC(=O)[C@H]4C[C@H](O)[C@H](O)C[C@]4(C)[C@H]3CC[C@]12C [24-epicastasterone]
- Relative amount of product detected [3, 4]: 1.20

Compound: CC(C)[C@@H](C)[C@@H](O)[C@H](O)[C@@H](C)[C@H]1CC[C@H]2[C@@H]3COC(=O)[C@H]4C[C@H](O)[C@H](O)C[C@]4(C)[C@H]3CC[C@]12C [24-epibrassinolide]
- Relative amount of product detected [3, 4]: 1.10

Compound: CC(C)CC[C@@H](O)[C@](C)(O)[C@H]1CC[C@@]2(O)C3=CC(=O)[C@@H]4C[C@@H](O)[C@@H](O)C[C@]4(C)[C@H]3[C@H](O)C[C@]12C [Ajugasterone C]
- Relative amount of product detected [3, 4]: 1.13

Compound: CC(C)(O)CC[C@@H](O)[C@](C)(O)[C@H]1CC[C@@]2(O)C3=CC(=O)[C@]4(O)C[C@@H](O)[C@@H](O)C[C@]4(C)[C@H]3CC[C@]12C [Polypodine B]
- Relative amount of product detected [3, 4]: 1.11
